Test results published in patent US20220259202A1, “1-(4-(AMINOMETHYL)BENZYL)-2-BUTYL-2H-PYRAZOLO[3,4-C]QUINOLIN-4-AMINE DERIVATIVES AND RELATED COMPOUNDS AS TOLL-LIKE RECEPTOR (TLR) 7/8 AGONISTS, AS WELL AS ANTIBODY DRUG CONJUGATES THEREOF FOR USE IN CANCER THERAPY AND DIAGNOSIS” (SUTRO BIOPHARMA, INC., priority 2019, published 2022).

Columns and labels:
Experiment in all cases: HEK293 SEAP reporter assay, other TLRs (Biological Example 3)
Assay type in all cases: cell-based
Conditions in all cases: 16 hrs, up to 1 μM
human TLR9 = molecular target: T1, human TLR9 (Homo sapiens, UniProt Q9NR96)
T1 construct: host or cells: HEK293
T1 sequence (Q9NR96 26-1032): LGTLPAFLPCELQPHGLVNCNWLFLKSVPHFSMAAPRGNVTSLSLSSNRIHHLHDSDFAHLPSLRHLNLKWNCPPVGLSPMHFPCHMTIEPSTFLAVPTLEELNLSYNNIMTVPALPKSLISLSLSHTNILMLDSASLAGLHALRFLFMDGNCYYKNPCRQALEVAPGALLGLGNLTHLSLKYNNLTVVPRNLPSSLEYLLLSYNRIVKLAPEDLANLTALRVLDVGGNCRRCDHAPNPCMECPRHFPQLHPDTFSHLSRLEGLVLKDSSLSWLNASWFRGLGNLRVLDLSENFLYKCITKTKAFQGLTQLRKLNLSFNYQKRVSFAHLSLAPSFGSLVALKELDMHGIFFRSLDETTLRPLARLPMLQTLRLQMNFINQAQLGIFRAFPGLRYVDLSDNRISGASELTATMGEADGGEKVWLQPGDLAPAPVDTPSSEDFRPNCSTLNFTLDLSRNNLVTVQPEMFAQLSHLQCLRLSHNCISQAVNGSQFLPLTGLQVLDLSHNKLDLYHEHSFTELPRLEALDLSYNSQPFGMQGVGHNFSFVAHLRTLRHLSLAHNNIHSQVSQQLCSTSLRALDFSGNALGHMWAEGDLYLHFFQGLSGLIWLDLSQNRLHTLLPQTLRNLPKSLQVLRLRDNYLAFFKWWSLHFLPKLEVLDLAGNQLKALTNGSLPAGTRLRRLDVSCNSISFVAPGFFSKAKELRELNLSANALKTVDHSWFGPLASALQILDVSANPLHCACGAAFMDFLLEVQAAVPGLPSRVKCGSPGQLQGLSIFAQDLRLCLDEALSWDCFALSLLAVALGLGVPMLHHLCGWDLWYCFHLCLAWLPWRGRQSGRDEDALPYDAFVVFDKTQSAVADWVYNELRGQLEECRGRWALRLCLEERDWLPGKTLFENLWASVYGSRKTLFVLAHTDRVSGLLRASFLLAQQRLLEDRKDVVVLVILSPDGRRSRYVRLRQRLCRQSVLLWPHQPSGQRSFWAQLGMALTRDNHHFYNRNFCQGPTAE
Text: (§1) In this example, the activity of the Compound 1 to stimulate different human and mouse TLR pathways was investigated on HEK293 cells transfected with inducible SEAP (secreted embryonic alkaline phosphatase) reporter genes and also expressing different human TLRs (TLR2, TLR3, TLR4, TLR5, TLR7, TLR8, TLRS) or mouse TLRs (TLR2, TLR3, TLR4, TLR5, TLR7, TLR8, TLR13). Compound A
(§2) HEK293 reporter cell lines were purchased from Invivogen and cell lines were maintained in manufacture recommended culture medium with required supplemental antibiotics. On the day of assay, the cells were harvested with Accutase and counted by the Vi-CELL Cell Viability Analyzers. Cells were re-suspended in HEK blue detection medium and a total of 10000 cells were seeded in each well of a 384-well flat bottom plate. […] Assay plates were cultured at 37° C. in a CO2 incubator for 16 hrs. HEK-Blue™ Detection medium changes to a purple/blue color in the presence of secreted SEAP, which can be detected by spectrophotometry at 620-655 nm. Data was fitted with non-linear regression analysis, using a log(inhibitor) vs. response-variable slope, 3-parameter fit with GraphPad Prism.

human TLR4 = molecular target: T2, human TLR4 (Homo sapiens, UniProt O00206+Q9Y6Y9)
T2 construct: host or cells: HEK293
Text: as §1, §2

human TLR2 = molecular target: T3, human TLR2 (Homo sapiens, UniProt O60603)
T3 construct: host or cells: HEK293
Text: as §1, §2

mouse TLR3 = molecular target: T4, mouse TLR3 (Mus musculus, UniProt Q99MB1)
T4 construct: host or cells: HEK293
T4 sequence (Q99MB1 26-905): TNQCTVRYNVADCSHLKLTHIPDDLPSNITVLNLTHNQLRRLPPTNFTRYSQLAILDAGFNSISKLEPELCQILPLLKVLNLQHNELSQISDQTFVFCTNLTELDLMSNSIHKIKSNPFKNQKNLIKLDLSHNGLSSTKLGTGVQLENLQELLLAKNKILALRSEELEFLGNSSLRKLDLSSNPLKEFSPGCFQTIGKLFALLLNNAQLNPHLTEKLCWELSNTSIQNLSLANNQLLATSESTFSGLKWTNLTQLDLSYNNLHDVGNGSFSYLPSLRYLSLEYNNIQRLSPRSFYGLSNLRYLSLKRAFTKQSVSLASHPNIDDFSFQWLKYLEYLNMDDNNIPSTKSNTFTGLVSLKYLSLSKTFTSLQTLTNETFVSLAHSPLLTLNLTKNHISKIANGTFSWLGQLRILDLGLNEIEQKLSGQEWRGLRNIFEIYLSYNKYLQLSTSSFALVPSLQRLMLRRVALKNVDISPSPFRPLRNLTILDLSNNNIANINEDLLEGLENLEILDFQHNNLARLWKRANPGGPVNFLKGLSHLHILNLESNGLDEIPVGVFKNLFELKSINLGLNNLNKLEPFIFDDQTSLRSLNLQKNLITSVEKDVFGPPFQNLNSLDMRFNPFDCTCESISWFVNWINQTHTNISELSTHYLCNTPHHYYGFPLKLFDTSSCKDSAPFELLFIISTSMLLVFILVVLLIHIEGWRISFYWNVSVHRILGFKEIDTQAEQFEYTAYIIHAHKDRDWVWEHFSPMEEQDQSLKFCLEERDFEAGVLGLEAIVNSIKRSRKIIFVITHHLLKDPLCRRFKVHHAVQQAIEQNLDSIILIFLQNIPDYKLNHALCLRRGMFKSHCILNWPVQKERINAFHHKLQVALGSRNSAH
Text: as §1, §2

Measured: EC50

T3 sequence (O60603 21-784): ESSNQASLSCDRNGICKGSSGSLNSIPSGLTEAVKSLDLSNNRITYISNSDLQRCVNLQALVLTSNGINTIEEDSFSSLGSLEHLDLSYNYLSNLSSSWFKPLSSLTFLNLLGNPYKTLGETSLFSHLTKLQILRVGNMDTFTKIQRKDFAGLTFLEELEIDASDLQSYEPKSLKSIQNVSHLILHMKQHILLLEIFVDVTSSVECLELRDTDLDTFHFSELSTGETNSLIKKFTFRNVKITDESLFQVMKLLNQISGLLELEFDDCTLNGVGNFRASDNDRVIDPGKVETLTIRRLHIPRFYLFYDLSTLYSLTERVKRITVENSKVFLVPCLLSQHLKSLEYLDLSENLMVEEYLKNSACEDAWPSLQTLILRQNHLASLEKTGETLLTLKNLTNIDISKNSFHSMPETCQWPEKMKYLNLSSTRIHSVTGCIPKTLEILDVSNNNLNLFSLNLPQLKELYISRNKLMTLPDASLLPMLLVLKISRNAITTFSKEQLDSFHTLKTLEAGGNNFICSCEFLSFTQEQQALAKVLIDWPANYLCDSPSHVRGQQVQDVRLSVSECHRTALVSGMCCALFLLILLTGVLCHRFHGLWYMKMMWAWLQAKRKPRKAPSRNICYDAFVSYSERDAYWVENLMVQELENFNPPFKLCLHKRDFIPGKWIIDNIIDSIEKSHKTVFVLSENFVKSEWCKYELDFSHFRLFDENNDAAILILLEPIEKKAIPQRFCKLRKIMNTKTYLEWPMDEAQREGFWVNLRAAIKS
T2 sequence (O00206 24-839): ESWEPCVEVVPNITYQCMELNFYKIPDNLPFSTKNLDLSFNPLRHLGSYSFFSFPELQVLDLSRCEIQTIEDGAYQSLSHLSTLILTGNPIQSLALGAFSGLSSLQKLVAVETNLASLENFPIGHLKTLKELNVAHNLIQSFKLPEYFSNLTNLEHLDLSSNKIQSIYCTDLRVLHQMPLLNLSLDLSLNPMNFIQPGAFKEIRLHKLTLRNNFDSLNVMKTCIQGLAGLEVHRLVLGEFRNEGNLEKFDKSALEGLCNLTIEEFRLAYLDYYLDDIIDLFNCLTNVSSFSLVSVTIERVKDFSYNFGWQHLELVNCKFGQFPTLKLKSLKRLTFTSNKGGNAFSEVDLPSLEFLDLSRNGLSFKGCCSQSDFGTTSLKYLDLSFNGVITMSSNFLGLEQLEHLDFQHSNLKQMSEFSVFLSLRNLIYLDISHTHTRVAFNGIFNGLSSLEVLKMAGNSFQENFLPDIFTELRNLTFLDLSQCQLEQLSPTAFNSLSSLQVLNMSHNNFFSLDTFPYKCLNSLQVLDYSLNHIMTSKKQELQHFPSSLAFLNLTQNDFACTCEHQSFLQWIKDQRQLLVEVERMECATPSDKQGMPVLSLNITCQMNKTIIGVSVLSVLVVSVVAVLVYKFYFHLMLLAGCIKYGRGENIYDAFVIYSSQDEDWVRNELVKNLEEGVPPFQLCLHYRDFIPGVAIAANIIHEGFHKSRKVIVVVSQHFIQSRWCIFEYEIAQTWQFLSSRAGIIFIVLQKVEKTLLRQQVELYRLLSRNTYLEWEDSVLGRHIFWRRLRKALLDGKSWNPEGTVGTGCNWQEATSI
T2 sequence (Q9Y6Y9 17-160 limits assumed): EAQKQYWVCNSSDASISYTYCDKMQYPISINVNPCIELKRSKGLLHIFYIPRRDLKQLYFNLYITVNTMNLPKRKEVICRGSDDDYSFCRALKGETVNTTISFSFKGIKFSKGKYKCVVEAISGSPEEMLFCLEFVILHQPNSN

CCCCn1nc2c(N)nc3ccccc3c2c1Cc1ccc(CN)cc1 [Compound 1, 1-(4-(aminomethyl)benzyl)-2-butyl-2H-pyrazolo[3,4-c]quinolin-4-amine]
> 1 µM: all assays above

CCCCc1nc2c(N)nc3ccccc3c2n1Cc1ccc(CN)cc1 [Compound A, reference compound]
> 1 µM: all assays above
